Patent publication US6022696A, “Methods of identifying agonists or antagonists of angiotensin IV” (Washington State University Research Foundation, priority 1998, dated 2000)

Assay: Stability of angiotensin peptides in binding assay buffer / assay conditions
Format: physicochemical
Conditions: 4 h at 37° C., reverse phase HPLC

SMILES: CC[C@H](C)[C@H](NC(=O)[C@H](Cc1ccc(O)cc1)NC(=O)[C@@H](N)C(C)C)C(=O)N[C@@H](Cc1cnc[nH]1)C(=O)N1CCC[C@H]1C(=O)N[C@@H](Cc1ccccc1)C(=O)O [AIV, Val1 Tyr2 Ile3 His4 Pro5 Phe6]
- hydrolysis in binding buffer: less than 10%
